Measurements published in patent US20210255193A1, “LYSINE REACTIVE PROBES AND USES THEREOF” (The Scripps Research Institute, priority 2017, published 2021).

How the values were obtained:
Experiment in all cases: competitive isoTOP-ABPP
Format in all cases: binding
[1] = molecular target: T1, ACBD3 Golgi resident protein GCP60 (Homo sapiens, UniProt Q9H3P7); parameters: key to isoTOP-ABPP reactivity ratio at lysine Q9H3P7_K117: R = MS1 peak area ratio, DMSO (heavy) / compound-treated (light); conditions: for R value (DMSO/fragment) for probe 1 labeling: Q9H3P7_K117; for R value (DMSO/fragment) for probe 1 labeling / isoTOP-ABPP reactivity ratio at lysine Q9H3P7_K117 / isoTOP-ABPP ratio (R) at liganded lysine Q9H3P7_K117: 50 uM, in vitro; for R value (DMSO/fragment) for probe 1 labeling / isoTOP-ABPP reactivity ratio at lysine Q9H3P7_K117: 231 sol; for isoTOP-ABPP ratio (R) at liganded lysine Q9H3P7_K117: sol, 231; for isoTOP-ABPP ratio, lysine Q9H3P7_K117: 50 uM_231_sol_in vitro
T1 construct: isoTOP-ABPP experiments performed in cell lysates (in vitro); endogenous in cells; host or cells: soluble proteome of human cancer cell lines (MDA-MB-231; Ramos and Jurkat also prepared)
T1 sequence (Q9H3P7 1-528): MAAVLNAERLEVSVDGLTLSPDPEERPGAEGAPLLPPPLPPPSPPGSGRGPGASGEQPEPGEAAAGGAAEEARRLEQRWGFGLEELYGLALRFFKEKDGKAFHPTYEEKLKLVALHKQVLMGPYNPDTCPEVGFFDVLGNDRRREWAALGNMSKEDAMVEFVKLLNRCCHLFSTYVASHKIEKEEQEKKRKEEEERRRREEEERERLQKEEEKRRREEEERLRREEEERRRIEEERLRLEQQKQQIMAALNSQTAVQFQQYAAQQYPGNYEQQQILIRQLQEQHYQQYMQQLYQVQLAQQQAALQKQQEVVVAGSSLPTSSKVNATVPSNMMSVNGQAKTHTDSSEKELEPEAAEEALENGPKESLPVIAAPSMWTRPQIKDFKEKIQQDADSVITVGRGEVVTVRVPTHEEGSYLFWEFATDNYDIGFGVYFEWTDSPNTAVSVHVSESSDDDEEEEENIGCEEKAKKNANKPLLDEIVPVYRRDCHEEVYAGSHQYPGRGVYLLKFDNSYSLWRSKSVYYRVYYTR
Experimental: (§1) In vitro covalent fragment treatment for isoTOP-ABPP. All compounds were made up as solutions in DMSO (100×) and were used at a final concentration of 50 μM for activated esters and 100 μM for guanidinylating agents. For each profiling sample, 0.5 ml of lysate was treated with 5 μl of the 100× compound stock solution or 5 μl of DMSO. Samples were treated with activated esters for
(§2) STP-alkyne labeling and click chemistry. For concentration-dependent reactivity measurements by isoTOP-ABPP, 0.5 ml proteome aliquots were treated at ambient temperature with 1 mM STP-alkyne 1 (5 μl of 100 mM stock in DMSO) and 0.1 mM STP alkyne 1 (5 μl of 10 mM stock in DMSO), respectively. For competitive isoTOP-ABPP, after in vitro fragment treatment (detailed above), the samples were labeled for 1 h at ambient temperature with 0.1 mM STP-alkyne 1 (5 μl of 10 mM stock in DMSO). Samples were conjugated by copper-mediated azide-alkyne cycloaddition (CuAAC) to either the light (1 mM STP-alkyne or fragment treated) or heavy (0.1 mM STP-alkyne or DMSO treated) TEV tags (10 μl of 5 mM stocks in DMSO, final concentration=100 μM) using tris(2-carboxyethyl)phosphine hydrochloride
(§3) R value calculation and processing. The ratios of light and heavy MS1 peaks for each unique peptide were quantified with a CIMAGE software using default parameters (3 MS1 acquisitions per peak and signal to noise threshold set to 2.5). For reactivity measurements by isoTOP-ABPP, the R value was calculated from the ratio of MS1 peak areas, comparing the 1 mM STP alkyne sample (light TEV tag) with the 0.1 mM STP alkyne sample (heavy TEV tag). For competitive isoTOP-ABPP, the R value was calculated from the ratio of MS1 peak areas, comparing the DMSO treated sample (heavy TEV tag) with the compound treated sample (light TEV tag). […] Ratios for unique peptide entries are calculated for each experiment; overlapping peptides with the same modified lysine (for example, different charge states, MudPIT chromatographic steps or tryptic termini) are grouped together and the median ratio is reported as the final ratio (R). The peptide ratios reported by CIMAGE were further filtered to ensure the removal or correction of low-quality ratios in each individual data set. The quality filters applied were the following: removal of half tryptic peptides; for ratios with high standard deviations from the median (90% of the median or above) the lowest ratio was taken instead of the median; removal of peptides with R=20 and only a single MS2 event triggered during the elution of the parent ion; manual annotation of all the peptides with ratios of 20, removing any peptides with low quality elution profiles that remained after the previous curation steps (only done for competitive isoTOP-ABPP).
(§4) Cross-data processing for fragment screening. For compound treated samples, biological replicates of the same condition were averaged, if the standard deviation was below 60% of the mean; otherwise, for lysines with at least one R value <4 for a particular compound, the lowest value of the ratio set was taken. For lysines, where all R values for a particular compound were ≥4, the average was reported. For peptides containing several possible modified lysines, the lysine with the highest number of quantification events was used for analysis and the remaining, redundant peptides were reported as alternative modification sites. Peptides included in the aggregate dataset (those used for further bioinformatics and statistical analyses) were required to have been quantified in 2 experiments for competitive isoTOP-ABPP. Lysines were categorized as liganded, if they had at least one ratio R≥4 (hit fragments). For liganded lysines with R=20 for all liganding events, lysines were required to have been quantified with R=20 in two separate experiments and were further required to have been quantified with R<20 in one additional experiment.

[2] = molecular target: T2, MAP1LC3B Microtubule-associated proteins 1A/1B light chain (Homo sapiens, UniProt Q9GZQ8); parameters: key to isoTOP-ABPP reactivity ratio at lysine Q9GZQ8_K51: R = MS1 peak area ratio, DMSO (heavy) / compound-treated (light); conditions: 50 uM, in vitro; for R value (DMSO/fragment) for probe 1 labeling: Q9GZQ8_K51; for R value (DMSO/fragment) for probe 1 labeling / isoTOP-ABPP reactivity ratio at lysine Q9GZQ8_K51: 231 sol
T2 construct: isoTOP-ABPP experiments performed in cell lysates (in vitro); endogenous in cells; host or cells: soluble proteome of human cancer cell lines (MDA-MB-231; Ramos and Jurkat also prepared)
Experimental: as §1, §2, §3, §4

[3] = molecular target: T3, NUDT2 Bis(5-nucleosyl)-tetraphosphatase (Homo sapiens, UniProt P50583); parameters: key to isoTOP-ABPP reactivity ratio at lysine P50583_K89: R = MS1 peak area ratio, DMSO (heavy) / compound-treated (light); conditions: for R value (DMSO/fragment) for probe 1 labeling: P50583_K89; for R value (DMSO/fragment) for probe 1 labeling / isoTOP-ABPP reactivity ratio at lysine P50583_K89 / isoTOP-ABPP ratio (R) at liganded lysine P50583_K89: 50 uM, in vitro; for R value (DMSO/fragment) for probe 1 labeling / isoTOP-ABPP reactivity ratio at lysine P50583_K89: 231 sol; for isoTOP-ABPP ratio (R) at liganded lysine P50583_K89: sol, 231; for isoTOP-ABPP ratio, lysine P50583_K89: 50 uM_231_sol_in vitro, possible other lysine P50583_K87
T3 construct: isoTOP-ABPP experiments performed in cell lysates (in vitro); endogenous in cells
Experimental: as §1, §2, §3, §4

[4] = molecular target: T4, KIAA1967 DBIRD complex subunit KIAA1967 (Homo sapiens, UniProt Q8N163); conditions: for R value (DMSO/fragment) for probe 1 labeling / isoTOP-ABPP reactivity ratio at lysine Q8N163_K97 / isoTOP-ABPP reactivity ratio at lysine Q8N163_K112: 231 sol; for isoTOP-ABPP ratio, lysine Q8N163_K97 / isoTOP-ABPP ratio, lysine Q8N163_K112: 50 uM_231_sol_in vitro
T4 construct: isoTOP-ABPP experiments performed in cell lysates (in vitro); endogenous in cells; host or cells: soluble proteome of human cancer cell lines (MDA-MB-231; Ramos and Jurkat also prepared)
Experimental: as §1, §2, §3, §4

T4 sequence (Q8N163 whole entry, the tested form may be a part, one chain of several): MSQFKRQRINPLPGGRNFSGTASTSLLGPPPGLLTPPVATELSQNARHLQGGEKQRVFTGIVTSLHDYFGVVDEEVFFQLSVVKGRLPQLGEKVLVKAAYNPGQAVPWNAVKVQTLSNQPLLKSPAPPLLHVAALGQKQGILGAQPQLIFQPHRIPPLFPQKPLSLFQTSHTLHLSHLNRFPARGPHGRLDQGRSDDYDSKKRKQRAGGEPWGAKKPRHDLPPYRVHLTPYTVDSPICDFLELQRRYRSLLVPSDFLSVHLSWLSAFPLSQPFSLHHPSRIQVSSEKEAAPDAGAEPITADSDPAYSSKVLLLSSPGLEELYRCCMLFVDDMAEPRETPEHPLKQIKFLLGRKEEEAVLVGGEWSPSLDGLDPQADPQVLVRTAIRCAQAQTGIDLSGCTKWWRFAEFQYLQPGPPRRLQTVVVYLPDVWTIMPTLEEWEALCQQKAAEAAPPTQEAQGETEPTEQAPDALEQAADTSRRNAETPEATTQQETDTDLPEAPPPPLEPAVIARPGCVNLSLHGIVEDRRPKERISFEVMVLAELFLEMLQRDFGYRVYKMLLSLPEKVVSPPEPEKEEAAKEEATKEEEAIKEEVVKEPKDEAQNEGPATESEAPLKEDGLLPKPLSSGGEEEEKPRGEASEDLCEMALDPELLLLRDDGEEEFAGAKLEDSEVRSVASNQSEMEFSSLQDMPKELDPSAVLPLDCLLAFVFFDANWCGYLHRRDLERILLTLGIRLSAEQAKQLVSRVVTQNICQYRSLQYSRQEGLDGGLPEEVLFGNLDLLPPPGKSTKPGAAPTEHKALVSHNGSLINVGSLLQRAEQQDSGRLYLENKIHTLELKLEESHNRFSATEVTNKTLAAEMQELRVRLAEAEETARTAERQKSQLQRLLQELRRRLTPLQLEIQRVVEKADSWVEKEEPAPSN
T3 sequence (P50583 whole entry, the tested form may be a part): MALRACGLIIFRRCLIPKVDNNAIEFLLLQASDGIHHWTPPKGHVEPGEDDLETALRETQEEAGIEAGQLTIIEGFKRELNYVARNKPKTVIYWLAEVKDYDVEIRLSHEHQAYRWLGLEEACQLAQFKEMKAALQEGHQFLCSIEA

Structure (SMILES) | R value (DMSO/fragment) for probe 1 labeling [1] | R value (DMSO/fragment) for probe 1 labeling [3] | R value (DMSO/fragment) for probe 1 labeling ([4]; Q8N163_K97, 50 uM, in vitro) | R value (DMSO/fragment) for probe 1 labeling ([4]; Q8N163_K112, 50 uM, in vitro) | isoTOP-ABPP reactivity ratio at lysine Q9H3P7_K117 [1] | isoTOP-ABPP reactivity ratio at lysine Q9GZQ8_K51 [2] | isoTOP-ABPP reactivity ratio at lysine P50583_K89 [3] | isoTOP-ABPP reactivity ratio at lysine Q8N163_K97 ([4]; 50 uM, in vitro) | isoTOP-ABPP reactivity ratio at lysine Q8N163_K112 ([4]; 50 uM, in vitro) | further results
O=C(CCc1cn(-c2ccccc2)nc1-c1ccccc1)Oc1c(F)c(F)c(F)c(F)c1F [fragment 19, Pentafluorophenyl 3-(1,3-diphenyl-1H-pyrazol-4-yl)propanoate] | 1.0 | 1.0 | 0.9 | 1.2 |  |  |  |  |  | R value (DMSO/fragment) for probe 1 labeling [2]: 1.0
O=C(Oc1c(F)c(F)c(F)c(F)c1F)C(c1ccccc1)c1ccccc1 [fragment 20, Pentafluorophenyl 2,2-diphenylacetate] | 1.2 | 0.9 | 0.9 | 1.0 |  |  |  |  |  | R value (DMSO/fragment) for probe 1 labeling [2]: 0.9
O=C(Oc1c(F)c(F)c(F)c(F)c1F)c1cc(C(F)(F)F)cc(C(F)(F)F)c1 [fragment 21, Pentafluorophenyl 3,5-bis(trifluoromethyl)benzoate] | 0.9 | 0.9 | 0.7 | 1.0 |  |  |  |  |  | 
Cn1cc(CC(=O)Oc2c(F)c(F)c(F)c(F)c2F)c2ccccc21 [fragment 22, Pentafluorophenyl 2-(1-methyl-1H-indol-3-yl)acetate] | 1.2 | 0.9 | 1.0 | 1.1 |  |  |  |  |  | R value (DMSO/fragment) for probe 1 labeling [2]: 1.2
COc1cc(CCC(=O)Oc2c(F)c(F)c(F)c(F)c2F)cc(OC)c1OC [fragment 23, Pentafluorophenyl 3-(3,4,5-trimethoxyphenyl)propanoate] | 1.2 | 1.0 | 0.8 | 1.1 |  |  |  |  |  | R value (DMSO/fragment) for probe 1 labeling [2]: 0.7
O=C(Oc1c(F)c(F)c(F)c(F)c1F)C1CCN(C(=O)OCc2ccccc2)CC1 [fragment 24, 1-Benzyl 4-(pentafluorophenyl) piperidine-1,4-dicarboxylate] |  |  |  |  | 1.0 | 1.1 | 0.9 | 0.9 | 1.0 | 
O=C(Oc1c(F)c(F)c(F)c(F)c1F)c1ccc2ccccc2n1 [fragment 25, Pentafluorophenyl quinoline-2-carboxylate] |  |  |  |  | 1.7 | 0.9 | 1.0 | 0.7 | 1.1 | 
O=C(CCc1coc2cc(F)ccc2c1=O)Oc1c(F)c(F)c(F)c(F)c1F [fragment 26, Pentafluorophenyl 3-(7-fluoro-4-oxo-4H-chromen-3-yl)propanoate] |  |  |  |  | 1.8 | 1.2 | 0.9 | 0.9 | 1.1 | 
O=C(CN1C(=O)c2ccccc2C1=O)Oc1c(F)c(F)c(F)c(F)c1F [fragment 27, Pentafluorophenyl 2-(1,3-dioxoisoindolin-2-yl)acetate] |  |  |  |  | 1.9 | 1.0 | 0.7 | 0.9 | 1.2 | 
CCn1cc(C(=O)Oc2c(F)c(F)c(F)c(F)c2F)c(=O)c2ccc(C)nc21 [fragment 28, Pentafluorophenyl 1-ethyl-7-methyl-4-oxo-1,4-dihydro-1,8-naphthyridine-3-carboxylate] |  |  |  |  | 1.1 | 1.0 | 1.0 | 0.9 | 1.1 | 
O=C(CCc1cn(-c2ccccc2)nc1-c1ccccc1)Oc1ccc([N+](=O)[O-])cc1[N+](=O)[O-] [fragment 29, 2,4-Dinitrophenyl 3-(1,3-diphenyl-1H-pyrazol-4-yl)propanoate] |  |  |  |  | 1.0 | 0.8 | 1.0 | 0.8 | 1.2 | 
O=C(CC12CC3CC(CC(C3)C1)C2)Oc1ccc([N+](=O)[O-])cc1[N+](=O)[O-] [fragment 38, 2,4-Dinitrophenyl 2-(adamantan-1-yl)acetate] |  |  |  |  |  |  |  |  |  | isoTOP-ABPP ratio (R) at liganded lysine Q9H3P7_K117 [1]: 1.0; isoTOP-ABPP ratio (R) at liganded lysine Q9GZQ8_K51 ([2]; sol, 231): 0.8; isoTOP-ABPP ratio (R) at liganded lysine P50583_K89 [3]: 0.9
CC(=O)Oc1ccc([N+](=O)[O-])cc1[N+](=O)[O-] [fragment 43, 2,4-Dinitrophenyl acetate] |  |  |  |  |  |  |  |  |  | isoTOP-ABPP ratio (R) at liganded lysine Q9H3P7_K117 [1]: 1.2; isoTOP-ABPP ratio (R) at liganded lysine P50583_K89 [3]: 1.1; isoTOP-ABPP ratio (R) at liganded lysine Q8N163_K97 ([4]; 50 uM, in vitro, sol, 231): 0.9; isoTOP-ABPP ratio (R) at liganded lysine Q8N163_K112 ([4]; 50 uM, in vitro, sol, 231): 1.0
O=C(ON1C(=O)CCC1=O)c1cc(C(F)(F)F)cc(C(F)(F)F)c1 [fragment 46, 3,5-Bis(trifluoromethyl)benzoic acid NHS ester] |  |  |  |  |  |  |  |  |  | isoTOP-ABPP ratio, lysine Q9H3P7_K117 [1]: 7.7; isoTOP-ABPP ratio, lysine P50583_K89 [3]: 1.1; isoTOP-ABPP ratio, lysine Q8N163_K97 [4]: 0.9; isoTOP-ABPP ratio, lysine Q8N163_K112 [4]: 1.1
NC(=O)c1cc(C(F)(F)F)cc(C(F)(F)F)c1 [fragment 51, reference compound] |  |  |  |  |  |  |  |  |  | isoTOP-ABPP ratio, lysine Q9H3P7_K117 [1]: 0.9; isoTOP-ABPP ratio, lysine P50583_K89 [3]: 0.9; isoTOP-ABPP ratio, lysine Q8N163_K97 [4]: 0.8; isoTOP-ABPP ratio, lysine Q8N163_K112 [4]: 0.8
